Measurements taken from patent publication US9000186B2, “Ring-fused heterocyclic derivative” (Kyowa Hakko Kirin Co., Ltd., priority 2011, dated 2015).
Where two headings read alike, the source gives them in different places.

Key:
[1] = target: T1, human Cav3.2 T-type Ca2+ channel (Homo sapiens, UniProt O95180); test: Inhibitory effect for intracellular calcium response via Cav3.2 T-type Ca2+ channels (FLIPR Calcium 3 Assay Kit); format: cell-based
T1 construct: expressed in transfected cells; host or cells: KJMGER8 cells (Namalwa cell-derived cell line)

[2] = test system: morphine-induced pruritus mice; test: Inhibitory effect for pruritus in morphine-induced pruritus mice; format: in vivo, male ddY mice; settings: oral, dose of 30 mg/kg or less, 30 minutes before intrathecal morphine (1 nmol/5 μL); scratching counted for 30 minutes
Protocol: Morphine (1 nmol/5 μL, dissolved in physiological saline) or physiological saline was intrathecally administered between the fifth and sixth lumbar vertebrae of male ddY mice using a microsyringe fitted with a 30-gauge injection needle. Mice administered with only morphine were used as a control group, and mice administered with only physiological saline as a physiological saline-administered group.
After the morphine administration, the number of scratching behavior with the hind legs which observed immediately in the mice was measured for 30 minutes. Because mice show a rapid, continuous scratching behavior in each scratching behavior, a series of such behavior was counted as a single scratching behavior.
The test compounds were administered 30 minutes before the morphine administration. Each test compound was suspended in a 0.5% methylcellulose solution, and orally administered in 10 mL/kg volume.

[3] = human Cav3.2-expressing KJMGER8 cells (Namalwa-derived), calcium response induced by 5 mmol/L CaCl2, normalised to 3 μmol/L mibefradil, read-out: IC50 for the human Cav3.2 T-type Ca2+ current

T1 sequence (O95180 whole entry): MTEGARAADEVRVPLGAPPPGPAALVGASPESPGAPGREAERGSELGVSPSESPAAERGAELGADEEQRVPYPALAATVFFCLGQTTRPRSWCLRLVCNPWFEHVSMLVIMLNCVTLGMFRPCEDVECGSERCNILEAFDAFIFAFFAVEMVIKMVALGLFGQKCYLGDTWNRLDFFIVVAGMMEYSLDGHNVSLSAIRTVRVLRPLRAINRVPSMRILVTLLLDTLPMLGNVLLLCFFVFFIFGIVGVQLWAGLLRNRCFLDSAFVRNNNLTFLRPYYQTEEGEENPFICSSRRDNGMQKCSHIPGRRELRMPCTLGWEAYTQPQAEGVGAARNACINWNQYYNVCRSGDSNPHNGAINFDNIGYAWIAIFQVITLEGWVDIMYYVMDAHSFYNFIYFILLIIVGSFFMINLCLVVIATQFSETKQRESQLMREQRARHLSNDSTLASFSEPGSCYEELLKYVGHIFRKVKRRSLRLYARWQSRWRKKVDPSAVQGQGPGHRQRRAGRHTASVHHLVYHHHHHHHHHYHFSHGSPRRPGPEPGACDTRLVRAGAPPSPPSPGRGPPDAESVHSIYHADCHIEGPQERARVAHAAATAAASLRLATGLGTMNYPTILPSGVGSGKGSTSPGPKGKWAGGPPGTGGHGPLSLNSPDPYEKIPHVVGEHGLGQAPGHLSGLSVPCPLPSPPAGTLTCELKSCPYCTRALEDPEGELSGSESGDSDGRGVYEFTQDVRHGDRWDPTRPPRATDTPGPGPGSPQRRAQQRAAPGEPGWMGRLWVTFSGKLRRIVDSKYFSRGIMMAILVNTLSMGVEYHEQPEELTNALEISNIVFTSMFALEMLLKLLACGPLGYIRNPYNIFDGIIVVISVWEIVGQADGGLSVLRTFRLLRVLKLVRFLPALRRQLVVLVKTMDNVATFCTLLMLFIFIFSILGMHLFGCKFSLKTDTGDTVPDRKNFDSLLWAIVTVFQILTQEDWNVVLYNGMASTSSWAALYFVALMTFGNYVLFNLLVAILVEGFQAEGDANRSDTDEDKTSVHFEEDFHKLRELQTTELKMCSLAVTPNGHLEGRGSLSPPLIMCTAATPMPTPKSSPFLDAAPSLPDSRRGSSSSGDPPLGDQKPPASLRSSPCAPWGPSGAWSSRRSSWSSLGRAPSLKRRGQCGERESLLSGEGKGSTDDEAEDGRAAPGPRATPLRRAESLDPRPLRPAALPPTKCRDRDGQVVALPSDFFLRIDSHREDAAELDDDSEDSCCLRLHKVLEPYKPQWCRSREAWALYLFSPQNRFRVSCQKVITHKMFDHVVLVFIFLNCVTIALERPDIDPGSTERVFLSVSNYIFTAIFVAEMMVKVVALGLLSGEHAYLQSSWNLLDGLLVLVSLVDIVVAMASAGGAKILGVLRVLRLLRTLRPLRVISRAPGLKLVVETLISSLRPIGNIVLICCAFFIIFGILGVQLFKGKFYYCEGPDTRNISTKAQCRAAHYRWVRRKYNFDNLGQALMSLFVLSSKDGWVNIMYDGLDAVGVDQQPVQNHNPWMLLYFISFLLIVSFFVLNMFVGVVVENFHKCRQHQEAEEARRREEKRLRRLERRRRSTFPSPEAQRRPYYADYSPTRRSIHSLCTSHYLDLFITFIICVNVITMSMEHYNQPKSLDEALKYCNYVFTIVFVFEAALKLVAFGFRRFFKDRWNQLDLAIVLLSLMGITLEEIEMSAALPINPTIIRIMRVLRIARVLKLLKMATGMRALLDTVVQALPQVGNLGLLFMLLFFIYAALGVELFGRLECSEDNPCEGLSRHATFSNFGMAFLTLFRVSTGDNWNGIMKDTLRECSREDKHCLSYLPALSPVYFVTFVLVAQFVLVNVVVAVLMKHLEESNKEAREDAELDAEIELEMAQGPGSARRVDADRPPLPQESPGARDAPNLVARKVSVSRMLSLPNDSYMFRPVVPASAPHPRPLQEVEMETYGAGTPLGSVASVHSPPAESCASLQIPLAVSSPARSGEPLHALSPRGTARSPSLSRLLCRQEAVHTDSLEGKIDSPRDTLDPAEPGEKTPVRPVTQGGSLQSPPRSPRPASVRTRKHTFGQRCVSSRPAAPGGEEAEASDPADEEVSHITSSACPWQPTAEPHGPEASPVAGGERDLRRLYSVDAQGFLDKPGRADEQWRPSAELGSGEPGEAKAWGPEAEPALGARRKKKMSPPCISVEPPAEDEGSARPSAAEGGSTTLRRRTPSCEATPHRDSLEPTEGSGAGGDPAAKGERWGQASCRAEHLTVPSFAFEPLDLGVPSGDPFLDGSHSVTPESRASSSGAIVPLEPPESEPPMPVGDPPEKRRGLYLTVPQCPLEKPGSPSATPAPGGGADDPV

| SMILES | IC50 [1] | increase of the scratching behavior observed in the morphine-induced pruritus mice [2] | IC50 [1, 3] |
| --- | --- | --- | --- |
| O=C(N[C@H]1CC[C@H](O)CC1)c1cc(Cl)n2c(CC3CCC(F)(F)CC3)c(C(F)(F)F)nc2c1 [Compound 103, 5-Chloro-3-(4,4-difluorocyclohexylmethyl)-N-(trans-4-hydroxycyclohexyl)-2-trifluoromethylimidazo[1,2-a]pyridine-7-carboxamide] | < 100 nM | inhibited | – |
| Cc1cc(C(=O)NCC(C)(C)O)cc2nc(C(F)(F)F)c(CC3CCC(F)(F)CC3)n12 [Compound 78, 3-(4,4-Difluorocyclohexylmethyl)-N-(2-hydroxy-2-methylpropyl)-5-methyl-2-trifluoromethylimidazo[1,2-a]pyridine-7-carboxamide] | < 100 nM | inhibited | – |
| CC(C)c1nc2cc(C(=O)Nc3ccccc3)ccn2c1S(=O)(=O)C1CCCCC1 [Compound 41, 3-Cyclohexylsulfonyl-2-isopropyl-N-phenylimidazo[1,2-a]pyridine-7-carboxamide] | < 100 nM | inhibited | – |
| CC1(C)CC(NC(=O)c2cc(Cl)n3c(CC4CCC(F)(F)CC4)c(C(F)(F)F)nc3c2)CCO1 (centres unmarked) [Compound 105, 5-Chloro-3-(4,4-difluorocyclohexylmethyl)-N-(2,2-dimethyltetrahydro-2H-pyran-4-yl)-2-trifluoromethylimidazo[1,2-a]pyridine-7-carboxamide] | < 100 nM | inhibited | – |
| CC1(c2nc3cc(C(=O)NC4CCOCC4)c(Cl)cn3c2CC2CCC(F)(F)CC2)CC1 [Compound 114, 6-Chloro-3-(4,4-difluorocyclohexylmethyl)-2-(1-methylcyclopropyl)-N-(tetrahydro-2H-pyran-4-yl)imidazo[1,2-a]pyridine-7-carboxamide] | – | inhibited | < 100 nM |
| Cc1cc(C(=O)NC2CCOCC2)cc2nc(C(F)(F)F)c(CC3CCC(F)(F)CC3)n12 [Compound 44, 3-(4,4-Difluorocyclohexylmethyl)-5-methyl-N-(tetrahydro-2H-pyran-4-yl)-2-trifluoromethylimidazo[1,2-a]pyridine-7-carboxamide] | – | inhibited | – |
| Cc1cn2c(CC3CCC(F)(F)CC3)c(C(F)(F)F)nc2cc1C(=O)NC1CCOCC1 [Compound 118, 3-(4,4-Difluorocyclohexylmethyl)-6-methyl-N-(tetrahydro-2H-pyran-4-yl)-2-trifluoromethylimidazo[1,2-a]pyridine-7-carboxamide] | – | inhibited | – |
| O=C(NC1CCOCC1)c1cc2nc(C3(C(F)(F)F)CC3)c(CC3CCC(F)(F)CC3)n2cc1Cl [Compound 110, 6-Chloro-3-(4,4-difluorocyclohexylmethyl)-N-(tetrahydro-2H-pyran-4-yl)-2-{1-(trifluoromethyl)cyclopropyl}imidazo[1,2-a]pyridine-7-carboxamide] | < 100 nM | inhibited | – |
| O=C(NC1CCC1)c1ccn2c(CC3CCC(F)(F)CC3)c(C(F)(F)F)nc2c1 [Compound 50, N-Cyclobutyl-3-(4,4-difluorocyclohexylmethyl)-2-trifluoromethylimidazo[1,2-a]pyridine-7-carboxamide] | < 100 nM | inhibited | – |
| CC1(NC(=O)c2ccn3c(CC4CCC(F)(F)CC4)c(C(F)(F)F)nc3c2)CCOCC1 [Compound 52, 3-(4,4-Difluorocyclohexylmethyl)-N-(4-methyltetrahydro-2H-pyran-4-yl)-2-trifluoromethylimidazo[1,2-a]pyridine-7-carboxamide] | < 100 nM | inhibited | – |
| O=C(NC1CC(F)(F)C1)c1ccn2c(CC3CCC(F)(F)CC3)c(C(F)(F)F)nc2c1 [Compound 51, N-(3,3-Difluorocyclobutyl)-3-(4,4-difluorocyclohexylmethyl)-2-trifluoromethylimidazo[1,2-a]pyridine-7-carboxamide] | < 100 nM | inhibited | – |
| O=C(Nc1ccncc1)c1ccn2c(CC3CCCCC3)c(C(F)(F)F)nc2c1 [Compound 35, 3-Cyclohexylmethyl-N-(pyridin-4-yl)-2-trifluoromethylimidazo[1,2-a]pyridine-7-carboxamide] | < 100 nM | inhibited | – |
| Cc1cc(C(=O)NC2CCC(O)CC2)cc2nc(C(F)(F)F)c(CC3CCC(F)(F)CC3)n12 (centres unmarked) [Compound 70, 3-(4,4-Difluorocyclohexylmethyl)-N-(4-hydroxycyclohexyl)-5-methyl-2-trifluoromethylimidazo[1,2-a]pyridine-7-carboxamide] | < 100 nM | inhibited | – |
| Cc1cc(C(=O)NC2CCOC(C)(C)C2)cc2nc(C(F)(F)F)c(CC3CCC(F)(F)CC3)n12 (centres unmarked) [Compound 75, 3-(4,4-Difluorocyclohexylmethyl)-N-(2,2-dimethyltetrahydro-2H-pyran-4-yl)-5-methyl-2-trifluoromethylimidazo[1,2-a]pyridine-7-carboxamide] | – | inhibited | < 100 nM |
| Cc1cc(C(=O)NC2CCC(F)(F)CC2)cc2nc(C(F)(F)F)c(CC3CCC(F)(F)CC3)n12 [Compound 72, N-(4,4-Difluorocyclohexyl)-3-(4,4-difluorocyclohexylmethyl)-5-methyl-2-trifluoromethylimidazo[1,2-a]pyridine-7-carboxamide] | < 100 nM | inhibited | – |
| CC(C)(C)c1nc2cc(C(=O)Nc3ccncc3)ccn2c1CC1CCC(F)(F)CC1 [Compound 34, 2-tert-Butyl-3-(4,4-difluorocyclohexylmethyl)-N-(pyridin-4-yl)imidazo[1,2-a]pyridine-7-carboxamide] | < 100 nM | inhibited | – |
| Cc1cc(C(=O)NCC2(C#N)CCOCC2)cc2nc(C(F)(F)F)c(CC3CCC(F)(F)CC3)n12 [Compound 84, N-{(4-Cyanotetrahydro-2H-pyran-4-yl)methyl}-3-(4,4-difluorocyclohexylmethyl)-5-methyl-2-trifluoromethylimidazo[1,2-a]pyridine-7-carboxamide] | < 100 nM | inhibited | – |
| CC(C)c1nc2cc(C(=O)Nc3ccccc3)ccn2c1COC1CCCCC1 [Compound 21, 3-Cyclohexyloxymethyl-2-isopropyl-N-phenylimidazo[1,2-a]pyridine-7-carboxamide] | – | inhibited | < 100 nM |
| Cc1cc(C(=O)NC2CCCOC2)cc2nc(C(F)(F)F)c(CC3CCC(F)(F)CC3)n12 (centres unmarked) [Compound 76, 3-(4,4-Difluorocyclohexylmethyl)-5-methyl-N-(tetrahydro-2H-pyran-3-yl)-2-trifluoromethylimidazo[1,2-a]pyridine-7-carboxamide] | – | inhibited | < 100 nM |
| CC(C)c1nc2cc(C(=O)Nc3ccncc3)ccn2c1S(=O)(=O)C1CCCCC1 [Compound 38, 3-Cyclohexylsulfonyl-2-isopropyl-N-(pyridin-4-yl)imidazo[1,2-a]pyridine-7-carboxamide] | < 100 nM | inhibited | – |
| CC1(C)CC(NC(=O)c2ccn3c(CC4CCC(F)(F)CC4)c(C(F)(F)F)nc3c2)CCO1 (centres unmarked) [Compound 54, 3-(4,4-Difluorocyclohexylmethyl)-N-(2,2-dimethyltetrahydro-2H-pyran-4-yl)-2-trifluoromethylimidazo[1,2-a]pyridine-7-carboxamide] | – | inhibited | – |
| O=C(Nc1ccncc1)c1ccn2c(CC3CCC(F)(F)CC3)c(C(F)(F)F)nc2c1 [Compound 36, 3-(4,4-Difluorocyclohexylmethyl)-N-(pyridin-4-yl)-2-trifluoromethylimidazo[1,2-a]pyridine-7-carboxamide] | – | inhibited | – |
| Cc1cn2c(S(=O)(=O)N3CCC(F)(F)CC3)c(C(C)C)nc2cc1C(=O)Nc1ccncc1 [Compound 165, 3-(4,4-Difluoropiperidin-1-ylsulfonyl)-2-isopropyl-6-methyl-N-(pyridin-4-yl)imidazo[1,2-a]pyridine-7-carboxamide] | – | – | < 100 nM |
| O=C(Nc1ccccc1)c1cc(Cl)n2c(CC3CCC(F)(F)CC3)c(C(F)(F)F)nc2c1 [Compound 102, 5-Chloro-3-(4,4-difluorocyclohexylmethyl)-N-phenyl-2-trifluoromethylimidazo[1,2-a]pyridine-7-carboxamide] | < 100 nM | – | – |
| CC(C)c1nc2cc(C(=O)NOCc3ccccc3)ccn2c1S(=O)(=O)N1CC(F)(F)C1 [Compound 135, N-(Benzyloxy)-3-(3,3-difluoroazetidin-1-ylsulfonyl)-2-isopropylimidazo[1,2-a]pyridine-7-carboxamide] | – | – | < 100 nM |
| O=C(Nc1ccccc1)c1cc2nc(C(F)(F)F)c(CC3CCC(F)(F)CC3)n2cc1Br [Compound 117, 6-Bromo-3-(4,4-difluorocyclohexylmethyl)-N-phenyl-2-trifluoromethylimidazo[1,2-a]pyridine-7-carboxamide] | < 100 nM | – | – |
